Experimental data: patent US8633186B2, “Modulation of chemosensory receptors and ligands associated therewith” (Senomyx Inc., priority 2007, dated 2014)
Each block holds one compound with its values, some of them ahead of it.

What was measured:
[1] = tested on: human panelists (which sample is sweeter); test: Sweet flavor and sweet flavor enhancement, human panelists, paired comparison test; format: in vivo
Protocol: Test samples containing experimental compounds are presented in pairs to the panelist and they are asked to determine which of the sample is sweeter. A group of 10-16 or more panelists participated in each test. Subjects refrained from eating or drinking (except water) for at least 1 hour prior to the test. Subjects rinsed with water several times to clean the mouth.
All samples are prepared with ethanol to ensure dispersion of the compound in solution. This includes samples without compound; all solutions are balanced for 0.1% ethanol.
Samples are also prepared with low sodium buffer (pH 7.1) in place of water. Buffer contains 0.952 g of KCl, 5.444 g of Na2HPO4, and 0.952 g of KH2PO4 in 40 L of DIUF water. Sample volumes are usually 20 ml.
In one paired comparison test, the panelist is presented with two different samples and asked to identify the sample which is sweeter. The samples within a paired comparison test are presented in a randomized, counterbalanced order. Panelists have up to a 1 minute delay between taste tests to clear the mouth of any tastes.
Binomial probability tables are used to determine the probability of the correct number of responses occurring for each test at alpha=0.05.

[2] = tested on: human panelists (perceived sweetness intensity); test: Sweet flavor and sweet flavor enhancement, human panelists, scaling test; format: in vivo; settings: for Average sweetness score (line scale 0 to 15): Table 29; for Average Sweetness: Table 36, n = 13
Excerpt: Test samples containing experimental compounds were compared to a dose-response curve for perceived sweetness intensity of sweeteners (such as, for example, sucralose, sucrose, fructose and other sweeteners) concentrations to determine equivalent sweetness intensity.
A group of eight or more panelists tasted solutions including sweeteners at various concentrations, as well as the experimental compound both with and without added sweetener. Panelists then rated sweetness intensity of all samples on a structured horizontal line scale, anchored from 0 to 15, where 0 equals no sweetness and 15 equals equivalent sweetness to a 15% sucrose sample. Scores for sweetness intensity were averaged across panelists. Then using the average scores and/or equation of the line for the sweetener dose-response curve, equivalent sweetness concentrations were determined for the samples containing experimental compounds.
Subjects had been previously familiarized with the key attribute taste and were trained to use the 0 to 15 point line scale. Subjects refrained from eating or drinking (except water) for at least 1 hour prior to the test. Subjects ate a cracker and rinsed with water several times to clean the mouth.
Sweetener solutions are provided at a wide range of concentrations such as 100 ppm, 200 ppm, 300 ppm, 400 ppm, and 500 ppm for sucralose, or between 0% and 12% for sucrose or fructose, in order to create a dose-response curve. Samples containing experimental compound were prepared both alone and in a 100 ppm sucralose solution or a 6% sucrose or fructose solution. All samples were made up in low sodium buffer pH 7.1. In order to aid dispersion, solutions can be made up in 0.1% ethanol.
The solutions were dispensed in 20 ml volumes into 1 oz. sample cups and served to the subjects at room temperature. All samples were presented in randomized counterbalanced order to reduce response bias. Further, two sessions of testing may be used to check panel precision.
Subjects tasted each sample individually and rate sweetness intensity on the line scale prior to tasting the next sample. All samples were expectorated. Subjects may retaste the samples but can only use the volume of sample given. Subjects must rinse with water between samples. Eating an unsalted cracker between samples may be required depending on the samples tasted.
The scores for each sample were averaged across subjects and standard error was calculated. The dose-response curve was plotted graphically, and this may be used to ensure the panel is rating accurately; i.e., increasing the concentration of sucralose should correspond to increased average scores for sweetness. A 2-way ANOVA (factors being samples and panelists) and multiple comparison tests (such as Tukey's Honestly Significant Difference test) can be used to determine differences among samples and/or panelists. A 3-way ANOVA, with sessions as the third factor, can be used to determine if there is any difference in the ratings between sessions.

[3] = Table 35, 6% Fructose alone vs 6% Fructose + 100 μM C20, of n = 19

- melting point: > 250 °C
Compound: N#Cc1c(Cl)c2ccccc2[nH]c1=O [Example 72, 4-chloro-2-oxo-1,2-dihydroquinoline-3-carbonitrile]

- melting point: 225 to 226 °C
Compound: CCCNC(=O)C(C)(C)COc1cccc2c1C(N)=NS(=O)(=O)N2 [Example 215, 3-(4-Amino-2,2-dioxide-1H-benzo[c][1,2,6]thiadiazin-5-yloxy)-2′,2′-dimethyl-N-propylpropanamide]

- melting point: 236 °C
Compound: COC(=O)c1c(N)c2ccccc2[nH]c1=O [Example 68, Methyl 4-amino-2-oxo-1,2-dihydroquinoline-3-carboxylate]

- melting point: > 250 °C
Compound: Nc1c(C(=O)O)c(=O)[nH]c2ccccc12 [Example 66, 4-Amino-2-oxo-1,2-dihydroquinoline-3-carboxylic acid]

- melting point: > 250 °C
Compound: Cc1cccc2[nH]c(=S)nc(N)c12 [Example 3, 4-Amino-5-methylquinazoline-2(1H)-thione]

- melting point: > 250 °C
Compound: CC(C)=Cc1c(F)ccc2c1C(N)=NS(=O)(=O)N2 [Example 134, 4-Amino-6-fluoro-5-(2-methylprop-1-enyl)-1H-benzo[c][1,2,3]thiadiazine-2,2-dioxide]

- melting point: 215 to 216 °C
Compound: NC1=NS(=O)(=O)Nc2cccc(OC3CCCCC3)c21 [Example 168, 4-Amino-5-(cyclohexyloxy)-1H-benzo[c][1,2,6]thiadiazine-2,2-dioxide]

The remaining lines, values behind:

Compound: Cc1sc2[nH]c(=S)nc(N)c2c1C [Example 1, 4-Amino-5,6-dimethylthieno[2,3-d]pyrimidine-2(1H)-thione]
- melting point: > 260 °C

Compound: C/C=C/c1cccc2c1C(N)=NS(=O)(=O)N2 [Example 130, 4-Amino-5-((E)-prop-1-enyl)-1H-benzo[c][1,2,3]thiadiazine-2,2-dioxide]
- melting point: > 260 °C

Compound: NC1=NS(=O)(=O)Nc2cccc(OC3CCCC3)c21 [Example 169, 4-Amino-5-(cyclopentoxy)-1H-benzo[c][1,2,6]thiadiazine-2,2-dioxide]
- melting point: > 260 °C

Compound: Nc1nc(=O)[nH]c2sc3c(c12)CCOC3 [Compound 568]
- Sample selected as more sweet by panelists, Total ([1]; Table 33, 6% Fructose + 100 μM compound vs 6% Fructose, of n = 26 (13 panelists × 2 reps)): 20

Compound: Nc1cc(=O)[nH]c2ccccc12 [Example 65, 4-Aminoquinolin-2(1H)-one]
- melting point: > 250 °C

Compound: O=C(CO)[C@@H](O)[C@H](O)[C@H](O)CO [Fructose, fructose]
- Average sweetness score (line scale 0 to 15) ([2]; 6% fructose alone): 6.9
- Average sweetness score (line scale 0 to 15) ([2]; 8% fructose alone): 8.6
- Average sweetness score (line scale 0 to 15) ([2]; 9% fructose alone): 9.3
- Average sweetness score (line scale 0 to 15) ([2]; 10% fructose alone): 9.5
- Average Sweetness ([2]; 2% Fructose alone): 2.3
- Average Sweetness ([2]; 4% Fructose alone): 4.2
- Average Sweetness ([2]; 6% Fructose alone): 5.9
- Sample selected as more sweet by panelists, Total ([1]; Table 33, 6% Fructose alone vs 6% Fructose + 100 μM compound, of n = 26): 6
- Sample selected as more sweet by panelists, Total ([1]; Table 34, 6% Fructose alone vs 6% Fructose + 100 μM C19, of n = 24): 6
- Sample selected as more sweet by panelists, Test 1 [1, 3]: 0
- Sample selected as more sweet by panelists, Total [1, 3]: 0
- Sample selected as more sweet by panelists, Test 1 ([1]; Table 37, 6% Fructose alone vs 6% fructose + 25 μM C21, of n = 25): 5
- Sample selected as more sweet by panelists, Test 1 ([1]; Table 38, 7% Fructose alone vs 6% fructose + 25 μM C21, of n = 25): 13

Compound: CCCOc1cccc2c1C(N)=NS(=O)(=O)N2 [Example 111, 4-Amino-5-(propyloxy)-1H-benzo[c][1,2,6]thiadiazine-2,2-dioxide]
- melting point: 229 to 230 °C

Compound: CC(C)=Cc1cccc2c1C(N)=NS(=O)(=O)N2 [Example 129, 4-Amino-5-(2-methylprop-1-enyl)-1H-benzo[c][1,2,3]thiadiazine-2,2-dioxide]
- melting point: > 260 °C
